Reference: ChEMBL document CHEMBL1201862, “PubChem BioAssay data set” (2004)
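Protocol summary: plate cells (96-well), add compound at 5 concentrations, incubate 48 h, interpolate endpoints linearly. At the GI50, growth is halved.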 Calls of active or inactive are those of the source. Cut-off read from the data, not from the text of the source: active = GI50 up to about 1.1 µM and inactive = higher.

Legend:
Experiment in all cases: NCI tumour cell line growth inhibition, 48 h
CAKI-1 = test system: CAKI-1
OVCAR-5 = test system: OVCAR-5
DMS-114 = test system: DMS-114
NCI-H23 = test system: NCI-H23
SF-539 = test system: SF-539
HT-29 = test system: HT-29
XF498 = test system: XF498
KM12 = test system: KM12
OVCAR-8 = test system: OVCAR-8
OVCAR-4 = test system: OVCAR-4
SNB-78 = test system: SNB-78
KM-20L2 = test system: KM-20L2
HCC 2998 = test system: HCC 2998
EKVX = test system: EKVX
RXF 393 = test system: RXF 393
UACC-62 = test system: UACC-62
RPMI-8226 = test system: RPMI-8226
U-251 = test system: U-251
M14 = test system: M14
HOP-62 = test system: HOP-62
COLO 205 = test system: COLO 205
MOLT-4 = test system: MOLT-4
SK-MEL-28 = test system: SK-MEL-28
SF-268 = test system: SF-268
UO-31 = test system: UO-31
IGROV-1 = test system: IGROV-1
SR = test system: SR
HOP-18 = test system: HOP-18
786-0 = test system: 786-0
A549 = test system: A549
SK-OV-3 = test system: SK-OV-3
Malme-3M = test system: Malme-3M
K562 = test system: K562
SK-MEL-2 = test system: SK-MEL-2
TK-10 = test system: TK-10
SF-295 = test system: SF-295
SNB-19 = test system: SNB-19
OVCAR-3 = test system: OVCAR-3
HCT-116 = test system: HCT-116
M19-MEL = test system: M19-MEL
SNB-75 = test system: SNB-75
NCI-H226 = test system: NCI-H226
DLD-1 = test system: DLD-1
SN12C = test system: SN12C
ACHN = test system: ACHN
A498 = test system: A498
LXFL 529 = test system: LXFL 529
HCT-15 = test system: HCT-15
SW-620 = test system: SW-620
DMS-273 = test system: DMS-273
NCI-H460 = test system: NCI-H460
LOX IMVI = test system: LOX IMVI
NCI-H522 = test system: NCI-H522
HOP-92 = test system: HOP-92
SK-MEL-5 = test system: SK-MEL-5
UACC-257 = test system: UACC-257

## C/C(=N\NC(N)=S)c1ccc(C2CCCCC2)cc1
CAKI-1
  GI50: 25.6 µM (inactive)
OVCAR-5
  GI50: 11.1 µM (inactive)
DMS-114
  GI50: 7.03 µM (inactive)
NCI-H23
  GI50: 16.9 µM (inactive)
SF-539
  GI50: 19.8 µM (inactive)
HT-29
  GI50: 10.5 µM (inactive)
XF498
  GI50: 0.113 µM (active)
KM12
  GI50: 15.9 µM (inactive)
OVCAR-8
  GI50: 15 µM (inactive)
OVCAR-4
  GI50: 14.4 µM (inactive)
SNB-78
  GI50: 25.9 µM (inactive)
KM-20L2
  GI50: 14.7 µM (inactive)
HCC 2998
  GI50: 16.4 µM (inactive)
EKVX
  GI50: 71.4 µM (inactive)
RXF 393
  GI50: 12.6 µM (inactive)
UACC-62
  GI50: 14.2 µM (inactive)
RPMI-8226
  GI50: 22.2 µM (inactive)
U-251
  GI50: 19 µM (inactive)
M14
  GI50: 9.59 µM (inactive)
HOP-62
  GI50: 37.2 µM (inactive)
COLO 205
  GI50: 12 µM (inactive)
MOLT-4
  GI50: 4.58 µM (inactive)
SK-MEL-28
  GI50: 16.6 µM (inactive)
SF-268
  GI50: > 100 µM (inactive)
UO-31
  GI50: 13 µM (inactive)
IGROV-1
  GI50: 12 µM (inactive)
SR
  GI50: 21.4 µM (inactive)
HOP-18
  GI50: 32.1 µM (inactive)
786-0
  GI50: 13.6 µM (inactive)
A549
  GI50: 43.4 µM (inactive)
SK-OV-3
  GI50: 32 µM (inactive)
Malme-3M
  GI50: 18.5 µM (inactive)
K562
  GI50: 12.2 µM (inactive)
SK-MEL-2
  GI50: 13.5 µM (inactive)
TK-10
  GI50: 26 µM (inactive)
SF-295
  GI50: 4.56 µM (inactive)
SNB-19
  GI50: 40.5 µM (inactive)
OVCAR-3
  GI50: 14.6 µM (inactive)
HCT-116
  GI50: 14.4 µM (inactive)
M19-MEL
  GI50: 27.5 µM (inactive)

## CC1=C(C(=O)CC(=O)C(=O)Nc2ccc(C)c(C)c2)Sc2ccccc2N1
CAKI-1
  GI50: > 100 µM (inactive)
OVCAR-5
  GI50: > 100 µM (inactive)
DMS-114
  GI50: > 100 µM (inactive)
NCI-H23
  GI50: > 100 µM (inactive)
SF-539
  GI50: > 100 µM (inactive)
HT-29
  GI50: > 100 µM (inactive)
SNB-75
  GI50: > 100 µM (inactive)
NCI-H226
  GI50: > 100 µM (inactive)
XF498
  GI50: > 100 µM (inactive)
KM12
  GI50: > 100 µM (inactive)
OVCAR-8
  GI50: > 100 µM (inactive)
DLD-1
  GI50: > 100 µM (inactive)
SN12C
  GI50: > 100 µM (inactive)
OVCAR-4
  GI50: > 100 µM (inactive)
SNB-78
  GI50: > 100 µM (inactive)
KM-20L2
  GI50: > 100 µM (inactive)
ACHN
  GI50: > 100 µM (inactive)
A498
  GI50: > 100 µM (inactive)
LXFL 529
  GI50: > 100 µM (inactive)
HCC 2998
  GI50: > 100 µM (inactive)
EKVX
  GI50: > 100 µM (inactive)
RXF 393
  GI50: > 100 µM (inactive)
UACC-62
  GI50: > 100 µM (inactive)
HCT-15
  GI50: > 100 µM
RPMI-8226
  GI50: > 100 µM (inactive)
U-251
  GI50: > 100 µM (inactive)
M14
  GI50: > 100 µM (inactive)
HOP-62
  GI50: > 100 µM (inactive)
COLO 205
  GI50: > 100 µM (inactive)
SW-620
  GI50: > 100 µM (inactive)
DMS-273
  GI50: > 100 µM (inactive)
SK-MEL-28
  GI50: > 100 µM (inactive)
SF-268
  GI50: > 100 µM (inactive)
UO-31
  GI50: > 100 µM (inactive)
NCI-H460
  GI50: > 100 µM (inactive)
IGROV-1
  GI50: > 100 µM (inactive)
LOX IMVI
  GI50: > 100 µM (inactive)
HOP-18
  GI50: > 100 µM (inactive)
786-0
  GI50: > 100 µM (inactive)
A549
  GI50: > 100 µM (inactive)
SK-OV-3
  GI50: > 100 µM (inactive)
Malme-3M
  GI50: > 100 µM (inactive)
NCI-H522
  GI50: > 100 µM (inactive)
HOP-92
  GI50: > 100 µM (inactive)
TK-10
  GI50: > 100 µM (inactive)
SK-MEL-5
  GI50: > 100 µM (inactive)
UACC-257
  GI50: > 100 µM (inactive)
SF-295
  GI50: > 100 µM (inactive)
SNB-19
  GI50: > 100 µM (inactive)
OVCAR-3
  GI50: > 100 µM (inactive)
HCT-116
  GI50: > 100 µM (inactive)
M19-MEL
  GI50: > 100 µM (inactive)
